According to patent publication US12162888B2, “Carboxamides as ubiquitin-specific protease inhibitors” (Valo Early Discovery, Inc., priority 2018, dated 2024):
Read-outs that look alike come from different tables or passages of the source.

Biological target: T1, USP28 (His-tagged USP28-FL-mammalian) (Homo sapiens, UniProt Q96RU2)
T1 construct: Expression of USP28 (1-1077)-TEV-6*His (pTT5 vector) was carried out in Expi293f cells; made in house; host or cells: Expi293F cells (pTT5 vector)
T1 sequence (Q96RU2 1-1077): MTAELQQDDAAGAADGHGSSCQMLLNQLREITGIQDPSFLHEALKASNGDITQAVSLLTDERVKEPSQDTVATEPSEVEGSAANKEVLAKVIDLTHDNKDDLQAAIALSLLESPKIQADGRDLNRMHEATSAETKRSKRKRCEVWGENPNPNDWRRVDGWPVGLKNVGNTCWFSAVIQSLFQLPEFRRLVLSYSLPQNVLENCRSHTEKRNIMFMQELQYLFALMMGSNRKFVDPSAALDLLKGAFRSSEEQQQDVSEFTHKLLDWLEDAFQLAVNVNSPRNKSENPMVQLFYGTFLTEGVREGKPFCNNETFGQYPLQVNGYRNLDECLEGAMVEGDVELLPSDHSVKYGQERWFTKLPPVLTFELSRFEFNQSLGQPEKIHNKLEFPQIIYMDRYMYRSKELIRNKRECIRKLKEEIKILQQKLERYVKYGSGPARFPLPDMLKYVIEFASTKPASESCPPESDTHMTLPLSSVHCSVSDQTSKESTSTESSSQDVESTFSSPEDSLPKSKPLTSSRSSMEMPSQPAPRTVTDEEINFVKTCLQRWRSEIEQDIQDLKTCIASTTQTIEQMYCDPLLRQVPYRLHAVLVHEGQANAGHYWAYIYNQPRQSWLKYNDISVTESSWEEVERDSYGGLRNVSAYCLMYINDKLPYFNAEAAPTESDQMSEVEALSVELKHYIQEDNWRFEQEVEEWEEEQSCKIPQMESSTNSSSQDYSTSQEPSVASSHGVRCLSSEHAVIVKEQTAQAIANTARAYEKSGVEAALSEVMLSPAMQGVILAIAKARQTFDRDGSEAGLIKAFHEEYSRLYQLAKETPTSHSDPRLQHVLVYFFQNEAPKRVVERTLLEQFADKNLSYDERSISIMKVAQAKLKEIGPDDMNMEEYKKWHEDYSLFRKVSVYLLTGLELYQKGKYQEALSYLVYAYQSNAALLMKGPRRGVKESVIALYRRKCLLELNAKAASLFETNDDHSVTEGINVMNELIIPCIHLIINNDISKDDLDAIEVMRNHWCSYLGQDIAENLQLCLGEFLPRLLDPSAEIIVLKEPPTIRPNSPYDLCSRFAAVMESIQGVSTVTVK
Assay: Ubiquitin-Rhodamine 110 Assay for USP28 Activity, Example A-1(a)
Assay type: biochemical
Summary of the method: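 Full-length His-tagged human USP28 (1-1077), expressed in Expi293F cells, was used at […] with 25 nM Ub-Rh110 (<<Km) in 20 mM Tris pH 8.0, 3 mM BME, 0.03% BGG and 0.01% Triton X-100. Compounds (25 μM-1.3 nM, 10-point) were preincubated with enzyme for 30 min, and the reaction ran 45 min at room temperature before a citric acid stop. Fluorescence was read at 485/535 nm, and IC50 came from 4-parameter fits of percent inhibition.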

[1] = biochemical IC50 range, Ubiquitin-Rhodamine 110 assay, read-out: USP28 A-1(a)
[2] = Ubiquitin-Rhodamine 110 biochemical assay, read-out: USP28 A-1(a) IC50 range
[3] = Ubiquitin-Rhodamine 110 assay, read-out: USP28 A-1(a) IC50 range

Row | Compound | IC50 [1] [nM] | IC50 [2] [nM] | further results
1 | Cc1ccc2c(N)c(C(=O)N[C@H]3COc4cc(OC[C@H]5CNC[C@@H]5C(F)(F)F)ccc4C3)sc2n1 [Example 688, 3-amino-6-methyl-N-[(3R)-7-{[(3R,4R)-4-(trifluoromethyl)pyrrolidin-3-yl]methoxy}-3,4-dihydro-2H-1-benzopyran-3-yl]thieno[2,3-b]pyridine-2-carboxamide] | 1 to 50 |  | 
2 | Cc1ccc2c(N)c(C(=O)N[C@H]3COc4cc(N5C[C@H](COC(F)(F)F)[C@H](N)C5)ccc4C3)sc2n1 [Example 673, 3-amino-N-[(3R)-7-[(3S,4S)-3-amino-4-[(trifluoromethoxy)methyl]pyrrolidin-1-yl]-3,4-dihydro-2H-1-benzopyran-3-yl]-6-methylthieno[2,3-b]pyridine-2-carboxamide] | 1 to 50 |  | 
3 | Cc1ccc2c(N)c(C(=O)N[C@H]3COc4nc(N5C[C@@H](N)C6(C5)OCCO6)ccc4C3)sc2n1 [Example 544, 3-amino-N-[(3R)-7-[(9R)-9-amino-1,4-dioxa-7-azaspiro[4.4]nonan-7-yl]-2H,3H,4H-pyrano[2,3-b]pyridin-3-yl]-6-methylthieno[2,3-b]pyridine-2-carboxamide] | 200 to 2000 |  | 
4 | CN[C@H]1CN(c2ccc3c(n2)CC[C@H](NC(=O)c2sc4nc(C)ccc4c2N)C3)C[C@H]1COC [Example 488, 3-amino-N-[(6S)-2-[(3R,4R)-3-(methoxymethyl)-4-(methylamino)pyrrolidin-1-yl]-5,6,7,8-tetrahydroquinolin-6-yl]-6-methylthieno[2,3-b]pyridine-2-carboxamide] |  | 50 to 200 | 
5 | CO[C@@H](C)CO[C@H]1CN(c2ccc3c(n2)CC[C@H](NC(=O)c2sc4nc(C)ccc4c2N)C3)C[C@@H]1N [Example 481, 3-amino-N-[(6S)-2-[(3S,4S)-3-amino-4-[(2S)-2-methoxypropoxy]pyrrolidin-1-yl]-5,6,7,8-tetrahydroquinolin-6-yl]-6-methylthieno[2,3-b]pyridine-2-carboxamide] |  | 50 to 200 | 
6 | Cc1ccc2c(N)c(C(=O)N[C@H]3COc4nc(N5C[C@H](CF)[C@@H](N)C5)ccc4C3)sc2n1 [Example 541, 3-amino-N-[(3R)-7-[(3R,4S)-3-amino-4-(fluoromethyl)pyrrolidin-1-yl]-2H,3H,4H-pyrano[2,3-b]pyridin-3-yl]-6-methylthieno[2,3-b]pyridine-2-carboxamide] | 200 to 2000 |  | 
7 | Cc1ccc2c(N)c(C(=O)N[C@H]3COc4nc(N5C[C@H](N)C6(C5)OCCO6)ccc4C3)sc2n1 [Example 543, 3-amino-N-[(3R)-7-[(9S)-9-amino-1,4-dioxa-7-azaspiro[4.4]nonan-7-yl]-2H,3H,4H-pyrano[2,3-b]pyridin-3-yl]-6-methylthieno[2,3-b]pyridine-2-carboxamide] | 200 to 2000 |  | 
8 | Cc1ccc2c(N)c(C(=O)N[C@H]3CCc4nc(N5C[C@@H](N)[C@]6(C5)OCC[C@H]6C)ccc4C3)sc2n1 [Example 512, 3-amino-N-[(6S)-2-[(4R,5S,9R)-9-amino-4-methyl-1-oxa-7-azaspiro[4.4]nonan-7-yl]-5,6,7,8-tetrahydroquinolin-6-yl]-6-methylthieno[2,3-b]pyridine-2-carboxamide] |  | 50 to 200 | 
9 | CO[C@@H]1CN(c2ccc3c(c2F)OC[C@H](NC(=O)c2sc4nc(C)ccc4c2N)C3)C[C@H]1N [Example 91, 3-amino-N-[(3R)-7-[(3R,4R)-3-amino-4-methoxypyrrolidin-1-yl]-8-fluoro-3,4-dihydro-2H-1-benzopyran-3-yl]-6-methylthieno[2,3-b]pyridine-2-carboxamide] |  |  | IC50 [3]: 200 to 2000 nM
10 | COCC(F)(F)[C@H]1CN(c2ccc3c(n2)CC[C@H](NC(=O)c2sc4nc(C)ccc4c2N)C3)C[C@@H]1N [Example 480, 3-amino-N-[(6S)-2-[(3R,4S)-3-amino-4-(1,1-difluoro-2-methoxyethyl)pyrrolidin-1-yl]-5,6,7,8-tetrahydroquinolin-6-yl]-6-methylthieno[2,3-b]pyridine-2-carboxamide] |  | 50 to 200 | 
11 | 3-amino-N-[(6S)-2-[(3S,4R)-3-(methoxymethyl)-4-[(^2H3)methylamino]pyrrolidin-1-yl]-5,6,7,8-tetrahydroquinolin-6-yl]-6-methylthieno[2,3-b]pyridine-2-carboxamide [Example 486] |  | 50 to 200 | 
12 | CO[C@H]1CN(c2cc(F)c3c(c2)OC[C@H](NC(=O)c2sc4nc(C)ncc4c2N)C3)C[C@@H]1N [Example 693, 5-amino-N-[(3R)-7-[(3S,4S)-3-amino-4-methoxypyrrolidin-1-yl]-5-fluoro-3,4-dihydro-2H-1-benzopyran-3-yl]-2-methylthieno[2,3-d]pyrimidine-6-carboxamide] | 200 to 2000 |  | 
13 | CO[C@H]1CCCN(c2cc(F)c3c(c2)OC[C@H](NC(=O)c2sc4nc(C)ccc4c2N)C3)C[C@H]1N [Example 691, 3-amino-N-[(3R)-7-[(3R,4S)-3-amino-4-methoxyazepan-1-yl]-5-fluoro-3,4-dihydro-2H-1-benzopyran-3-yl]-6-methylthieno[2,3-b]pyridine-2-carboxamide] | 50 to 200 |  | 
14 | CO[C@H]1CN(c2ccc3c(n2)CC[C@H](NC(=O)c2sc4nc(C)cnc4c2N)C3)C[C@H]1N [Example 492, 7-amino-N-[(6S)-2-[(3R,4S)-3-amino-4-methoxypyrrolidin-1-yl]-5,6,7,8-tetrahydroquinolin-6-yl]-3-methylthieno[2,3-b]pyrazine-6-carboxamide] |  | 50 to 200 | 
15 | CN[C@@H]1CN(c2ccc3c(n2)CC[C@H](NC(=O)c2sc4nc(C)cnc4c2N)C3)C[C@@H]1OC [Example 497, 7-amino-N-[(6S)-2-[(3S,4R)-3-methoxy-4-(methylamino)pyrrolidin-1-yl]-5,6,7,8-tetrahydroquinolin-6-yl]-3-methylthieno[2,3-b]pyrazine-6-carboxamide] |  | 200 to 2000 | 
16 | CO[C@]1(C)CN(c2ccc3c(c2)OC[C@H](NC(=O)c2sc4nc(C)ccc4c2N)C3)C[C@H]1N [Example 282, 3-amino-N-[(3R)-7-[(3R,4R)-4-amino-3-methoxy-3-methylpyrrolidin-1-yl]-3,4-dihydro-2H-1-benzopyran-3-yl]-6-methylthieno[2,3-b]pyridine-2-carboxamide] |  |  | IC50 [3]: 200 to 2000 nM
